# From US20030181418A1, “Pharmaceutical composition” (SANKYO COMPANY, LIMITED, priority 2002, published 2003)
# Read-outs that look alike come from different tables or passages of the source.
# System: Lewis rat with adjuvant (Mycobacterium butyricum) induced arthritis
# Assay type: in vivo
# Settings: distal end of right-and-left thighbone, 21st day after adjuvant, 14th to 20th day
# [1] = Example 2, celecoxib 1 mg/kg orally every day and/or Preparation 22 3.5 mg/kg intraperitoneally
Molecule,Bone density (average ± standard deviation) [1],"Bone density (average ± standard deviation) (Example 1, loxoprofen sodium 5 mg/kg orally and/or Preparation 4 0.1 mg/kg intraperitoneally, every day)"
"Cc1ccc(-c2cc(C(F)(F)F)nn2-c2ccc(S(N)(=O)=O)cc2)cc1 [Celecoxib, celecoxib]",103.0 ± 1.8 mg/cm^2,–
"CC(C(=O)O)c1ccc(CC2CCCC2=O)cc1 (stereo not drawn) [Loxoprofen sodium, loxoprofen sodium]",–,106.5 ± 0.8 mg/cm^2
"Preparation 22: complex of recombinant human OCIF dimer and DS5; DS5 150 mg/ml, OCIF 5 mg/ml, 7° C., pH 10.5, 168 hours (conjugate, UniProt O00300 22-401, looked up, dimer complexed with DS5, complex of recombinant human OCIF dimer and DS5; DS5 150 mg/ml, OCIF 5 mg/ml, 7° C., pH 10.5, 168 hours) Tumor necrosis factor …: ETFPPKYLHYDEETSHQLLCDKCPPGTYLKQHCTAKWKTVCAPCPDHYYTDSWHTSDECLYCSPVCKELQYVKQECNRTHNRVCECKEGRYLEIEFCLKHRSCPPGFGVVQAGTPERNTVCKRCPDGFFSNETSSKAPCRKHTNCSVFGLLLTQKGNATHDNICSGNSESTQKCGIDVTLCEEAFFRFAVPTKFTPNWLSVLVDNLPGTKVNAESVERIKRQHSSQEQTFQLLKLWKHQNKDQDIVKKIIQDIDLCENSVQRHIGHANLTFEQLRSLMESLPGKKVGAEDIEKTIKACKPSDQILKLLSLWRIKNGDQDTLKGLMHALKHSKTYHFPKTVTQSLKKTIRFLHSFTMYKLYQKLFLEMIGNQVQSVKISCL",104.2 ± 2.1 mg/cm^2,–
